Laboratory results: PubChem BioAssay (NCI)
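Assay format: 96-well plates, 48-hour exposure. GI50 marks 50% less growth. TGI is the concentration that stops growth completely.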

Columns and labels:
Assay in all cases: inhibition of tumour cell growth, NCI panel, 48 h
A549 NSCLC = test system: A549 NSCLC
ACHN renal = test system: ACHN renal
DU-145 prostate = test system: DU-145 prostate
M14 melanoma = test system: M14 melanoma
MCF7 breast = test system: MCF7 breast
MDA-MB-231 breast = test system: MDA-MB-231 breast
NCI-H460 lung = test system: NCI-H460 lung
OVCAR-5 ovarian = test system: OVCAR-5 ovarian
SK-MEL-5 melanoma = test system: SK-MEL-5 melanoma
RXF 393 renal = test system: RXF 393 renal
HCC-2998 colon = test system: HCC-2998 colon

Compound	TGI (A549 NSCLC)	TGI (ACHN renal)	TGI (DU-145 prostate)	TGI (M14 melanoma)	TGI (MCF7 breast)	TGI (MDA-MB-231 breast)	TGI (NCI-H460 lung)	TGI (OVCAR-5 ovarian)	TGI (SK-MEL-5 melanoma)	TGI (RXF 393 renal)	TGI (HCC-2998 colon)	GI50 (ACHN renal)	GI50 (DU-145 prostate)	GI50 (HCC-2998 colon)	GI50 (M14 melanoma)	GI50 (MCF7 breast)	GI50 (MDA-MB-231 breast)	GI50 (OVCAR-5 ovarian)	GI50 (SK-MEL-5 melanoma)
CCCn1c(=O)c(N2CCN(c3ccccc3)CC2)nc2sc3ccccc3c21	> 100 µM	> 100 µM	> 100 µM	> 100 µM	> 100 µM	> 100 µM	> 100 µM	> 100 µM	> 100 µM	–	–	–	–	–	–	–	–	–	–
CCN(CC)c1nnc(CCCCCCCCc2nnc(N(CC)CC)o2)o1	> 100 µM	> 100 µM	> 100 µM	> 100 µM	> 100 µM	> 100 µM	> 100 µM	> 100 µM	> 100 µM	> 100 µM	–	–	–	–	–	–	–	–	–
CN1CCN(c2ccc3c(c2)NCC(=O)N3)CC1	> 100 µM	> 100 µM	> 100 µM	> 100 µM	–	> 100 µM	> 100 µM	> 100 µM	> 100 µM	> 100 µM	> 100 µM	–	–	–	–	–	–	–	–
OC(c1cccnc1Cl)c1nc2ccccc2c2ccnc(Cl)c12 (stereo not drawn)	> 100 µM	> 100 µM	> 100 µM	> 100 µM	> 100 µM	> 100 µM	> 100 µM	> 100 µM	> 100 µM	35.4 µM	–	–	–	–	–	–	–	–	–
CN=C(Nc1cccc(C(F)(F)F)c1)SCc1ccc(N=C=S)cc1	37.5 µM	28.7 µM	31.2 µM	–	–	32.3 µM	26.4 µM	30.2 µM	30.1 µM	29.3 µM	29 µM	–	–	–	–	–	–	–	–
CCOC(=O)c1c[nH]c2ccc3c(c2c1=O)S(=O)(=O)CC3 (tested in a mixture with another compound)	> 100 µM	–	–	–	> 100 µM	–	> 100 µM	> 100 µM	> 100 µM	> 100 µM	> 100 µM	–	–	–	–	–	–	–	–
N#CCCC1(CCC#N)CCCCCCCCC(CCC#N)(CCC#N)C(O)C1O (stereo not drawn)	> 100 µM	> 100 µM	> 100 µM	> 100 µM	> 100 µM	–	> 100 µM	> 100 µM	> 100 µM	86.9 µM	> 100 µM	–	–	–	–	–	–	–	–
C=C1CC[C@@H](C)[C@](C)(CCc2ccoc2)C/C=C\C=C/1C(=O)O	> 100 µM	> 100 µM	–	> 100 µM	> 100 µM	> 100 µM	> 100 µM	> 100 µM	> 100 µM	90.8 µM	–	–	–	–	–	–	–	–	–
Cn1c(=O)n2n(c1=O)C(C)(C13CC4CC(CC(C4)C1)C3)C13CC4CC(CC1C4)CC23 (stereo not drawn)	> 100 µM	> 100 µM	> 100 µM	> 100 µM	> 100 µM	> 100 µM	> 100 µM	> 100 µM	> 100 µM	–	–	–	–	–	–	–	–	–	–
C[N+](C)(C)c1ncnc2c1ncn2C1CCCO1 (stereo not drawn)	> 100 µM	> 100 µM	> 100 µM	> 100 µM	> 100 µM	–	> 100 µM	> 100 µM	> 100 µM	> 100 µM	> 100 µM	–	–	–	–	–	–	–	–
CCCCCCCCCCCC[N+](CCCCCCCCCCCC)=C1SCCS1	18 µM	25.1 µM	–	22.3 µM	–	–	20.5 µM	25.1 µM	18.5 µM	14.8 µM	22.4 µM	–	–	–	–	–	–	–	–
CC(C)(CCC(C)(C)N1OC1c1ccccc1)N1OC1c1ccccc1 (stereo not drawn)	> 100 µM	35.8 µM	> 100 µM	–	> 100 µM	> 100 µM	> 100 µM	–	37.8 µM	–	> 100 µM	–	–	–	–	–	–	–	–
CCc1ccc2c(c1)N(CC(C)CN(C)C)c1ccccc1S2 (stereo not drawn)	21.7 µM	15.5 µM	21.4 µM	4.12 µM	11.5 µM	17.3 µM	8.51 µM	19.9 µM	8.1 µM	10.3 µM	–	–	–	–	–	–	–	–	–
O=C1CCCC/C1=C\c1ccc(Cl)c(Cl)c1	> 100 µM	33.5 µM	–	42.2 µM	–	–	42.6 µM	–	32.5 µM	–	42.7 µM	–	–	–	–	–	–	–	–
COc1cccc(/N=N/C(=NNC(=O)c2ccc(C)cc2)c2ccc(N(C)C)cc2)c1	> 100 µM	> 100 µM	> 100 µM	> 100 µM	> 100 µM	> 100 µM	> 100 µM	> 100 µM	> 100 µM	–	> 100 µM	–	–	–	–	–	–	–	–
O=C1NC2CCCCCC2C12CCCCC2 (stereo not drawn)	> 100 µM	> 100 µM	–	> 100 µM	–	–	> 100 µM	> 100 µM	–	> 100 µM	> 100 µM	–	–	–	–	–	–	–	–
COc1cc(O)c2c(=O)c(OC)c(-c3ccc(OC)c(OC)c3)oc2c1	> 100 µM	> 100 µM	> 100 µM	> 100 µM	> 100 µM	> 100 µM	> 100 µM	> 100 µM	> 100 µM	–	> 100 µM	> 100 µM	> 100 µM	94.4 µM	> 100 µM	45.8 µM	> 100 µM	23 µM	82 µM

Compound	TGI (A549 NSCLC)	TGI (ACHN renal)	TGI (DU-145 prostate)	TGI (M14 melanoma)	TGI (MCF7 breast)	TGI (MDA-MB-231 breast)	TGI (NCI-H460 lung)	TGI (OVCAR-5 ovarian)	TGI (SK-MEL-5 melanoma)	TGI (RXF 393 renal)	TGI (HCC-2998 colon)	GI50 (ACHN renal)	GI50 (DU-145 prostate)	GI50 (HCC-2998 colon)	GI50 (M14 melanoma)	GI50 (MCF7 breast)	GI50 (MDA-MB-231 breast)	GI50 (OVCAR-5 ovarian)	GI50 (SK-MEL-5 melanoma)
O=c1[nH]c(Nc2nc3ccccc3[nH]2)nc(O)c1Cc1ccccc1	> 100 µM	> 100 µM	> 100 µM	> 100 µM	–	> 100 µM	> 100 µM	–	> 100 µM	–	–	–	–	–	–	–	–	–	–
CN(C)CCNC(=O)c1cccc2c(NC(CCC(N)=O)C(=O)O)c3ccccc3nc12 (stereo not drawn)	64.6 µM	18.8 µM	> 100 µM	27.5 µM	51.3 µM	24.7 µM	54.9 µM	> 100 µM	31.4 µM	–	55.6 µM	–	–	–	–	–	–	–	–
O=c1[nH]c2nc3ccccc3c(=O)n2/c1=C/c1ccco1	> 100 µM	> 100 µM	> 100 µM	> 100 µM	> 100 µM	> 100 µM	–	> 100 µM	> 100 µM	–	> 100 µM	–	–	–	–	–	–	–	–
N#C/C(C(=S)NCc1ccccc1)=C(/N)N1CCCC1	> 100 µM	> 100 µM	> 100 µM	> 100 µM	–	> 100 µM	> 100 µM	> 100 µM	> 100 µM	> 100 µM	> 100 µM	–	–	–	–	–	–	–	–
O=C1N[C@@H]2C(=C[C@H](O)[C@@H](O)[C@H]2O)c2cc3c(c(O)c21)OCO3	0.306 µM	–	–	–	–	–	0.119 µM	0.294 µM	0.0774 µM	–	0.0681 µM	–	–	–	–	–	–	–	–
COc1ccc(C2=NOC(N)(c3ccc(OC)cc3)C2)cc1 (stereo not drawn)	> 100 µM	> 100 µM	> 100 µM	> 100 µM	> 100 µM	> 100 µM	> 100 µM	> 100 µM	> 100 µM	–	> 100 µM	–	–	–	–	–	–	–	–
COc1cc(Nc2nc3cc(C(F)(F)F)ccc3n3cccc23)cc(OC)c1OC	> 100 µM	> 100 µM	> 100 µM	> 100 µM	> 100 µM	–	–	> 100 µM	> 100 µM	> 100 µM	> 100 µM	–	–	–	–	–	–	–	–
Cc1cc2c(cc1C)[n+](=O)c(C(=O)c1ccccc1)c(C(F)(F)F)n2[O-]	3.88 µM	8.29 µM	3.15 µM	16.5 µM	14.1 µM	6.55 µM	2.98 µM	10.2 µM	3.75 µM	12.9 µM	–	–	–	–	–	–	–	–	–
COc1ccc(CNc2cc(=O)n(C)c(=O)[nH]2)cc1	> 100 µM	> 100 µM	–	> 100 µM	> 100 µM	> 100 µM	> 100 µM	> 100 µM	> 100 µM	> 100 µM	> 100 µM	–	–	–	–	–	–	–	–
Nc1ccc(Nc2cc(=O)[nH]c(=O)[nH]2)cc1Cl	> 100 µM	> 100 µM	> 100 µM	> 100 µM	> 100 µM	> 100 µM	> 100 µM	> 100 µM	> 100 µM	–	> 100 µM	–	–	–	–	–	–	–	–
COC(=O)Cc1c(-c2c(CC(=O)OC)c3ccccc3n2C2OC(COC(C)=O)C(OC(C)=O)C(OC(C)=O)C2OC(C)=O)[nH]c2ccccc12 (stereo not drawn)	> 100 µM	–	> 100 µM	> 100 µM	–	> 100 µM	> 100 µM	> 100 µM	> 100 µM	–	> 100 µM	–	–	–	–	–	–	–	–
CN1CCN(P2(=S)Oc3ccc4ccccc4c3-c3c(ccc4ccccc34)O2)CC1	> 100 µM	–	–	–	> 81.2 µM	–	42.1 µM	> 100 µM	53.2 µM	> 94.7 µM	41.8 µM	–	–	–	–	–	–	–	–
COC(=O)C1CCC(=O)N1C(c1ccc2c(c1)OCO2)c1cc(OC)c(OC)c(OC)c1 (stereo not drawn)	> 100 µM	> 100 µM	> 100 µM	> 100 µM	> 100 µM	> 100 µM	> 100 µM	> 100 µM	> 100 µM	–	> 100 µM	–	–	–	–	–	–	–	–
COC(=O)C(=O)Cc1nc2ccccc2o1	–	> 100 µM	–	> 100 µM	–	–	> 100 µM	> 100 µM	–	> 100 µM	> 100 µM	–	–	–	–	–	–	–	–
O=NN(CCF)C(=O)NC1CCSCC1	> 100 µM	–	–	–	> 100 µM	–	> 100 µM	> 100 µM	> 100 µM	> 100 µM	> 100 µM	–	–	–	–	–	–	–	–
O=C(c1ccco1)N(C(=O)N1CCN(c2ccccc2)CC1)S(=O)(=O)c1ccccc1	> 100 µM	62.7 µM	> 100 µM	60.4 µM	84 µM	> 100 µM	> 100 µM	> 100 µM	68.3 µM	–	> 100 µM	–	–	–	–	–	–	–	–
CC[C@@]1(O)C(=O)OCc2c1cc1n(c2=O)Cc2c-1nc1ccccc1c2/C=N\NC(=O)C(N)CCSC (stereo partly drawn)	3.19 µM	< 0.0506 µM	> 100 µM	0.473 µM	1.84 µM	> 100 µM	0.624 µM	> 23.7 µM	0.191 µM	–	5.26 µM	–	–	–	–	–	–	–	–
